Consider one molecule from patent US11464750B2, “Anticancer agent and use thereof” (priority 2017, dated 2022).

Common to all, as to assay type: cell-based, human
Test [1] concerns BALL-1 cells. Briefly: Cell cycle analysis by flow cytometry. The following applies: 0.5 μM. As for the experimental part:
Specifically, BALL-1 cells were treated with 3EZ,20Ac-ingenol at a final concentration of 0.5 μM for 6, 12, 24, and 48 hours, and then a phase of a cell cycle was analyzed using flow cytometry. In addition, cells that were not treated with 3EZ,20Ac-ingenol were used as controls.

A further test has as its system caspase 3. Briefly: Western blotting, activated caspase 3, JeKo-1 cells. The following applies: 0.5 μM, 48 hours after treatment. As for the experimental part:
Specifically, JeKo-1 cells were cultured for 0 (control), 12, 24, and 48 hours in the presence of 0.5 μM of 3EZ,20Ac-ingenol. In addition. Panc-1 cells were cultured for 0 (control), 12, 24, and 48 hours in the presence of 3 μM of 3EZ,20Ac-ingenol. Subsequently, activation of caspase 3 in the respective cells was detected by Western blotting using an anti-activated-caspase antibody (R & D Systems). Furthermore, as a loading control, actin protein was detected using an anti-actin antibody (Sigma).
A general note: A western blot detects proteins with antibodies after separation by electrophoresis.

Test [2] relates to BALL-1 cells. Briefly: MTT assay, BALL-1 cells with siRNA against ATR. The following applies: 0.5 μM, 48 hours. As to the method:
An effect of ATR activity on cell proliferation inhibition was examined. In the same manner as in Experimental Example 9, siRNA against ATR was introduced into BALL-1 cells, and the cells were incubated for 48 hours. Subsequently, a cell medium was replaced with a medium containing 3EZ,20Ac-ingenol at a final concentration of 0.5 μM, and culturing was performed for 48 hours.
For comparison, BALL-1 cells cultured for 48 hours in a medium containing 3EZ,20Ac-ingenol at a final concentration of 0.5 μM without introduction of siRNA were used. In addition, as controls, cells into which control siRNA (“ON-TARGET Plus Nontargeting pool,” GE Dharmacon) was introduced and which were then cultured in the absence of 3EZ,20Ac-ingenol were used.
(Tetrazolium assays rely on reduction of a dye to a coloured formazan, in cell work by metabolically active cells.)

The subject of a further test is p-GSK-3β (Ser^9). Briefly: Western blotting, p-GSK-3β (Ser9), Panc-1 cells. The following applies: 3 μM, entire cell. As for the experimental part:
Specifically, first, JeKo-1 cells were cultured for 0 (control), 12, 24, and 48 hours in the presence of 0.5 μM of 3EZ,20Ac-ingenol. In addition, Panc-1 cells were cultured for 0 (control), 12, 24, and 48 hours in the presence of 3 μM of 3EZ,20Ac-ingenol.
Subsequently, abundances of GSK-3β and p-GSK-3β in the respective cells were analyzed by Western blotting using an anti-GSK-3β antibody (Cell Signaling Technology) and an anti-p-GSK-3β (Ser^9) antibody (Cell Signaling Technology). Furthermore, as a loading control, actin protein was detected using an anti-actin antibody (Sigma).

Another test concerns p53 protein. Briefly: Western blotting, p53 protein, JeKo-1 cells. The following applies: 0.5 μM, 12 hours until 48 hours after treatment. As for the experimental part:
(§1) Specifically, JeKo-1 cells were cultured for 0 (control), 12, 24, and 48 hours in the presence of 0.5 μM of 3EZ,20Ac-ingenol. In addition, Panc-1 cells were cultured for 0 (control), 12, 24, and 48 hours in the presence of 3 μM of 3EZ,20Ac-ingenol.
(§2) Subsequently, ATR protein, p53 protein, and phosphorylated p53 (hereinafter also referred to as “p-p53”) protein in the respective cells were respectively detected using an anti-ATR antibody (Cell Signaling Technology), an anti-p53 antibody (Santa Cruz), and an anti-p-p53 antibody (Cell Signaling Technology). Furthermore, as a loading control, actin protein was detected using an anti-actin antibody (Sigma).

Test [3] deals with phosphorylated p53 (p-p53) protein. Kind of test: Western blotting, phosphorylated p53, Panc-1 cells. The following applies: 3 μM. As for the experimental part: as §1, §2
The test system of test [4] is phosphorylated Akt (Ser^473). Kind of test: Western blotting, p-Akt (Ser473), BALL-1 cells. The following applies: 0.5 μM. As to the method: The effect of 3EZ,20Ac-ingenol treatment on a PI3K/Akt signaling pathway was examined. Specifically, BALL-1 cells, TKG0210 cells, and TKG0377 cells were cultured for 48 hours in the presence of 3EZ,20Ac-ingenol at a final concentration of 0.5 μM, and by Western blotting using an anti-p-Akt (Ser^473) antibody (Cell Signaling Technology), phosphorylation of the 473th serine residue of an Akt protein in respective fractions of the entire cell, a nucleus, and a cytoplasm was analyzed. In addition, cells cultured in the absence of 3EZ,20Ac-ingenol were used as controls.
The effect of 3EZ,20Ac-ingenol treatment on PTEN, p-PTEN, and p-Akt of BALL-1 cells was examined. First, BALL-1 cells were cultured for 3, 6, 12, 24, and 48 hours in the presence of 3EZ,20Ac-ingenol at a final concentration of 0.5 μM, and by Western blotting using an anti-PTEN antibody (Santa Cruz), an anti-p-PTEN (Ser^380/Thr^382/383) antibody (Santa Cruz), and an anti-p-Akt (Ser^473) antibody (Cell Signaling Technology), abundances of PTEN, p-PTEN, and p-Akt in the entire cell fraction were analyzed. In addition, cells cultured in the absence of 3EZ,20Ac-ingenol were used as controls.
BALL-1 cells, TKG0210 cells, and TKG0377 cells were cultured for 24 and 48 hours in the presence of 3EZ,20Ac-ingenol at a final concentration of 0.5 μM, and abundances of p-Akt in the nuclear fraction and the cytoplasm fraction were analyzed by Western blotting. In addition, respective cells cultured in the absence of 3FZ,20Ac-ingenol were used as controls.
The effect of 3EZ,20Ac-ingenol treatment on PTEN and p-Akt was examined using siRNA against PTEN. First, BALL-1 cells were cultured for 12, 24, and 48 hours in the presence of 3EZ,20Ac-ingenol at a final concentration of 0.5 μM, and an abundance of p-Akt was analyzed by Western blotting in the same manner as in Experimental Example 11. Cells cultured in the absence of 3EZ,20Ac-ingenol were used as controls.
Subsequently, siRNA against PTEN (“ON-TARGET Plus Human PTEN (5728) siRNA-SMARTpool,” GE Dharmacon) was introduced into BALL-1 cells at a final concentration of 50 nM and incubated for 48 hours. Subsequently, a cell medium was replaced with a new medium and cultured for 12, 24, and 48 hours in the presence or absence of 3EZ,20Ac-ingenol at a final concentration of 0.5 μM, and by Western blotting using an anti-PTEN antibody (Santa Cruz) and an anti-p-Akt (Ser^473) antibody (Cell Signaling Technology), abundances of PTEN protein and p-Akt were analyzed.

SMILES strings stand for the structures. Entries after “also recorded” stand apart in the source; their conditions may differ.

With `CCCCC/C=C\C=C\C(=O)O[C@H]1C(C)=C[C@]23C(=O)[C@@H](C=C(COC(C)=O)[C@@H](O)[C@]12O)[C@H]1[C@@H](C[C@H]3C)C1(C)C` [3EZ,20Ac-ingenol, 3-O-(2′E,4′Z-decadienoyl)-20-O-acetylingenol], the “proportion of S-phase cells” value with BALL-1 cells [1] (after 6 hours) worked out at 68%; in the test on BALL-1 cells [1] (after 12 hours and 24 hours), 75%. In the test with BALL-1 cells [1] (after 12 hours and 24 hours), the “proportion of G2/M-phase cells” value was “about 3%”. For the same molecule, in the test with BALL-1 cells [1] (after 24 hours), the “proportion of G1-phase cells” value is recorded as “about 19%”. The “activation of caspase 3” value in the test with caspase 3 was “activation of caspase 3 was observed”. For the same molecule, the “reduction of cell proliferation inhibition by knockdown of ATR” value in the test with BALL-1 cells [2] is “about 20%”. For the same molecule, the “p-GSK-3β (an inactive type)” value with p-GSK-3β (Ser^9) is “a decrease in p-GSK-3β (an inactive type) was observed”. Moreover, the “expression level of p53 protein” value with p53 protein was “an increase in expression level of p53 protein was recognized”. In test [3] (12 hours after treatment, entire cells), the “phosphorylation of p53” value is “phosphorylation of p53 was observed”. Besides, the “amount of phosphorylated p53 protein” value in test [3] (nuclear fraction and cytoplasm fraction) is listed as “the amount of phosphorylated p53 protein increased”. Further, the “abundance of p-Akt” value is reported as “down-regulation of p-Akt abundance was observed” in test [4] (3 to 48 hours, entire cell fraction); “an abundance of p-Akt in the BALL-1 cells decreased” in test [4] (24 hours after the start of treatment (Experimental Example 16)); “a moderate decrease in abundance of p-Akt was observed” in test [4] (24 hours, nuclear fraction); “slightly reduced; also recorded: a slight decrease in abundance of p-Akt was observed” in test [4] (48 hours, cytoplasm fraction); “a decrease in abundance of phosphorylated Akt” in test [4] (48 hours, entire cell); “significantly decreased; also recorded: a further decrease in abundance of p-Akt” in test [4] (48 hours, nuclear fraction). Besides, the “abundance of p-Akt” value in test [4] (cells with siRNA against PTEN introduced, after 12 hours) is reported as “an increase in abundance of p-Akt was observed”; in test [4] (cells with siRNA against PTEN introduced, after 24 hours and 48 hours), “a decrease in abundance of p-Akt was observed”.
